Measurements taken from article PMC8430952 (International Journal of Molecular Sciences, 2021).
Residue numbers refer to the chain shown, from its start. No end group written: not given here.

Key:
[1] = biological target: T1, ATAD2 bromodomain (BRD), residues 981–1108 (Homo sapiens, UniProt Q6PL18); experiment: ITC of histone peptides with the wild-type ATAD2 bromodomain; assay type: binding; conditions: for N-Value (stoichiometry of binding, peptide-to-bromodomain ratio) / ATAD2 BRD KD: ITC, 5 °C; for N-Value (stoichiometry of binding, peptide-to-bromodomain ratio): ATAD2 BRD (residues 981–1108, wild type), one set of sites model; for Kd: SD; for ATAD2 BRD KD: 150 mM NaH2PO4 and 150 mM NaCl, 5 mM peptide titrated into 0.2 mM ATAD2 BRD (residues 981–1108, wild type), 1:1 binding model, mean ± SD of three runs, no binding repeated in duplicate
T1 construct: Residues 981–1108 encoding the 128 amino acid ATAD2 BRD were PCR amplified; GST (with PreScission Protease site) (N, cleaved yes); made in house; host or cells: E. coli Rosetta 2(DE3) pLysS (non-codon-optimized) or BL21(DE3) pLysS (codon-optimized)
T1 sequence (Q6PL18 981-1108): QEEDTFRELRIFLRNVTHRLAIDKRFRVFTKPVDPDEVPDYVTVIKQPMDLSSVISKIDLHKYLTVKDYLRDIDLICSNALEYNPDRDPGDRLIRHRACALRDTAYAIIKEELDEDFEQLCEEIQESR
Procedure: (§1) Purified protein was concentrated to a volume of 3 mL and dialyzed into ITC buffer (150 mM NaH2PO4 and 150 mM NaCl) for 48 h. ITC experiments with histone peptides were carried out at 5 °C using a MicroCal iTC200 (Malvern Panalytical, Westborough, MA, USA). […] The stirring speed was set at 750 RPM. After excluding the first injection, the ITC binding isotherms were integrated using a Marquandt nonlinear least-squares analysis according to a 1:1 binding model assuming a single set of identical binding sites with the Origin 7.0 program (OrginLab Corporation, Northampton, MA, USA). The raw data were corrected for non-specific heats of dilution determined by the magnitude of the peaks appearing after the system reaches complete saturation. The obtained heats of dilution were analyzed according to a one set of sites binding model and used to calculate binding affinities, N values, and thermodynamic values. […] The mean Kd was calculated from the average of the three runs, and the standard deviation was calculated from the mean.

[2] = biological target: T2, ATAD2 BRD mutant I1074A (Homo sapiens, UniProt Q6PL18, I1074A); experiment: ITC of histone peptides with the ATAD2 bromodomain mutant I1074A; assay type: binding; conditions: ATAD2 (residues 981–1108) I1074A mutant bromodomain
T2 construct: ATAD2 (residues 981–1108) with a N1064A/I1074A/I1074Y mutation; GST (with PreScission Protease site) (N, cleaved yes); made in house; host or cells: E. coli
T2 sequence (Q6PL18 981-1108 I1074A): T1 sequence (Q6PL18 981-1108) with I94A
Procedure: as §1

[3] = biological target: T3, ATAD2 BRD mutant I1074Y (Homo sapiens, UniProt Q6PL18, I1074Y); experiment: ITC of histone peptides with the ATAD2 bromodomain mutant I1074Y; assay type: binding; conditions: ATAD2 (residues 981–1108) I1074Y mutant bromodomain
T3 construct: ATAD2 (residues 981–1108) with a N1064A/I1074A/I1074Y mutation; GST (with PreScission Protease site) (N, cleaved yes); made in house; host or cells: E. coli
T3 sequence (Q6PL18 981-1108 I1074Y): T1 sequence (Q6PL18 981-1108) with I94Y
Procedure: as §1

[4] = biological target: T4, ATAD2 BRD mutant N1064A (Homo sapiens, UniProt Q6PL18, N1064A); experiment: ITC of histone peptides with the ATAD2 bromodomain mutant N1064A; assay type: binding; conditions: ATAD2 (residues 981–1108) N1064A mutant bromodomain
T4 construct: ATAD2 (residues 981–1108) with a N1064A/I1074A/I1074Y mutation; GST (with PreScission Protease site) (N, cleaved yes); made in house; host or cells: E. coli
T4 sequence (Q6PL18 981-1108 N1064A): T1 sequence (Q6PL18 981-1108) with N84A
Procedure: as §1

[5] = biological target: histone H4K8ac (Homo sapiens) (UniProt P62805); experiment: ITC; conditions: cited from earlier work
[6] = biological target: histone H4K5ac (Homo sapiens) (UniProt P62805); experiment: ITC; conditions: cited from earlier work
[7] = biological target: T5, ATAD2 bromodomain (residues 966–1112, C1101A) (Homo sapiens, UniProt Q6PL18, C1101A); experiment: ITC of histone H4 peptides with the longer ATAD2 bromodomain construct; assay type: binding; conditions: for N-Value (stoichiometry of binding): ITC, 5 °C, ATAD2 bromodomain residues 966–1112, C1101A; for Kd: SD, read-out: KD from ITC
T5 construct: GST (with PreScission protease cleavage site) (N, cleaved yes); made in house; host or cells: E. coli BL21(DE3) pLysS
T5 sequence (Q6PL18 966-1112 C1101A): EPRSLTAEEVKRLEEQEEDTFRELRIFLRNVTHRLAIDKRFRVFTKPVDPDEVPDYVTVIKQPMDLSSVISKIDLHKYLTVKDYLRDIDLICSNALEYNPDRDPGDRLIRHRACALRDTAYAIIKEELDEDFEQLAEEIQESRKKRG
Procedure: as §1

[8] = biological target: T6, histone H4K12ac 4-17 (Homo sapiens, UniProt P62805); experiment: ITC
T6 chain: RGKGGKGLGK(Ac)GGAK

[9] = biological target: T7, histone H4K5acK8ac 1-10 (Homo sapiens, UniProt P62805); experiment: ITC
T7 chain: MSGRGK(Ac)GGK(Ac)G

For `CC(=O)NCCCC[C@H](NC(=O)CNC(=O)CN)C(=O)NCC(=O)N[C@@H](CC(C)C)C(=O)NCC(=O)N[C@@H](CCCCNC(C)=O)C(=O)NCC(=O)NCC(=O)N[C@@H](C)C(N)=O` [H4K8acK12ac (res 6–15)], the “N-Value (stoichiometry of binding, peptide-to-bromodomain ratio)” value [1] was 1.169 and the Kd [1] was 392 ± 19.5 µM.

With `CC(=O)NCCCC[C@H](NC(=O)CNC(=O)[C@H](CC(C)C)NC(=O)CNC(=O)[C@H](CCCCN)NC(=O)CNC(=O)CNC(=O)[C@H](CCCCN)NC(=O)CN)C(=O)NCC(=O)NCC(=O)N[C@@H](C)C(=O)N[C@@H](CCCCN)C(=O)N[C@@H](CCCNC(=N)N)C(N)=O` [H4K12ac (res 4–17)] the KD [2] was “No binding”, the KD [3] was “No binding” and the “N-Value (stoichiometry of binding, peptide-to-bromodomain ratio)” value [1] was 1.170. For the same molecule, the Kd [1] was 95.1 ± 13.1 µM and the KD [4] was “No binding”.

For “ARTKQTARKSTG [H3 unmodified (res 1–12), unmodified histone H3 tail peptide, residues 1–12]”, the “ATAD2 BRD KD” value [1] was “No Binding”.

In the case of “ARTKQTARKacSTG [H3K9ac (res 1–12), histone H3 tail peptide, residues 1–12, acetylated at K9]”, the “ATAD2 BRD KD” value [1] is reported as “No Binding”.

In the case of ATAD2 bromodomain (from UniProt Q6PL18), the Kd [5] is given as 1130 µM and the Kd [6] is given as 44.5 µM.

For “GKGGKGLGKGGAKR [H4 unmodified (res 4–17), unmodified histone H4 tail peptide, residues 4–17; free N-terminus, amidated C-terminus]”, the “ATAD2 BRD KD” value [1] was “No Binding”.

For “GKGGKacGLGKGGAKR [H4K8ac (res 4–17), histone H4 tail peptide, residues 4–17, acetylated at K8]”, the “ATAD2 BRD KD” value [1] was “No Binding” and the “ATAD2 BRD KD” value ([1]; listed as H5K8ac (4–17)) was “complete lack of binding”.

For “GKacGGKGLGKGGAKR [H4K5ac (res 4–17), histone H4 tail peptide, residues 4–17, acetylated at K5]”, the “ATAD2 BRD KD” value [1] was “No Binding” and the “ATAD2 BRD KD” value ([1]; listed as H4K5ac (4–17)) was “complete lack of binding”.

In the case of “LGK(Ac)GGAK(Ac)RHRK-NH2 [H4K12acK16ac (res 10–20)]”, the “N-Value (stoichiometry of binding, peptide-to-bromodomain ratio)” value [1] is reported as 1.082 and the Kd [1] is reported as 303 ± 18.7 µM.

In the case of “LGKGGAKacRHRK [H4K16ac (res 10–20), histone H4 tail peptide, residues 10–20, acetylated at K16]”, the “ATAD2 BRD KD” value [1] is reported as “No Binding”.

In the case of “RKSTGGKAPRKacQ [H3K18ac (res 8–19), histone H3 tail peptide, residues 8–19, acetylated at K18]”, the “ATAD2 BRD KD” value [1] is reported as “No Binding”.

In the case of “RKSTGGKacAPRKQ [H3K14ac (res 8–19), histone H3 tail peptide, residues 8–19, acetylated at K14]”, the “ATAD2 BRD KD” value [1] is reported as “No Binding” and the “ATAD2 BRD KD” value ([1]; listed as H3K14ac) is reported as “did not observe any binding”.

In the case of “SGRGK(Ac)GGK(Ac)GL-NH2 [H4K5acK8ac (res 1–10)]”, the “N-Value (stoichiometry of binding)” value [7] is reported as 0.974, the Kd [7] is reported as 15.9 ± 2.5 µM and the KD [2] is reported as “No binding”. The KD [3] was “No binding”, the “N-Value (stoichiometry of binding, peptide-to-bromodomain ratio)” value [1] was 0.938 and the Kd [1] was 33.2 ± 5.9 µM. For the same molecule, the KD [4] was “No binding”.

In the case of SGRGK(Ac)GGKGL-NH2 [H4K5ac (res 1–10)], the “N-Value (stoichiometry of binding)” value [7] is reported as 1.021, the Kd [7] is reported as 10.1 ± 1.3 µM and the “N-Value (stoichiometry of binding, peptide-to-bromodomain ratio)” value [1] is reported as 1.070. The Kd [1] was 44.5 ± 3.3 µM.

In the case of “SGRGK(Ac)QGGKARA-NH2 [H2AK5ac (res 1–12)]”, the “N-Value (stoichiometry of binding, peptide-to-bromodomain ratio)” value [1] is reported as 0.997 and the Kd [1] is reported as 38.9 ± 5.9 µM.

For SGRGKGGK(Ac)GL-NH2 [H4K8ac (res 1–10)], the “N-Value (stoichiometry of binding, peptide-to-bromodomain ratio)” value [1] was 1.144 and the Kd [1] was 1130 ± 122 µM.

B1: ATAD2 bromodomain (protein)
chain: RLEEQEEDTFRELRIFLRNVTHRLAIDKRFRVFTKPVDPDEVPDYVTVIKQPMDLSSVISKIDLHKYLTVKDYLRDIDLICSNALEYNPDRDPGDRLIRHRACALRDTAYAIIKEELDE
For B1, the Kd [8] was 95.1 µM and the Kd [9] was 33.2 µM.
